Holding throughout (type): physicochemical
A short description of series [1]: Kinetic solubility of melt extrudates (rotating bottle). To be noted: aqueous buffer; melt extrudates equivalent to 100 mg compound of formula (I), pH 6.8 phosphate buffer, rotating bottle 50 rpm, 37° C. On the procedure:
• Principle: Measurement of the amount of drug substance solubilized using rotating bottle apparatus. Determination by HPLC/UV method for sample analysis.
• Speed of rotation: 50 rpm • Test medium: […] • Volume of test medium: 75 mL • Temperature: 37±0.5° C. Sampling Time points 5, 10, 15, 20, 25, 30, 45, 60 minutes
Procedure: The concentration maximum is taken as kinetic solubility value.
(§1) Melt extrudates were prepared according to example 1. The kinetic solubility and the physical state of the compound of formula (I) were determined. […] Kinetic solubility were determined by adding melt extrudates equivalent to 100 mg of the compound of formula (I) in pH 6.8 phosphate buffer using a rotating bottle at 50 rpm and at a temperature of 37° C. The physical state (crystalline or amorphous) was determined by XRPD (discrete peaks indicating some of the material being in a crystalline state, absence of peaks indicating amorphous state).

Series [2] in a line: Chemical compatibility of the compound of formula (I) with polymers: melt extrudates analysed by HPLC for total impurity. To be noted: hot melt extrusion. The source says: Assay, Degradation Products/Impurities by HPLC
Principle: RP HPLC with UV detection
• Acetonitrile (HPLC grade, e.g. Merck) • Water (e.g. from Milli-Q instrument) • Methanol (Analytical grade, e.g. Sigma-Aldrich or equivalent) • Solvent: Water/acetonitrile 40/60 (v/v)
• Apparatus: e.g. HP 1290 (UPLC) • Column: Waters Acquity BEH C18 (Length 100 mm, internal diameter 2.1 mm or equivalent column and particle size 1.7 μm)
• Mobile Phase: • A: Water/Acetonitrile/TFA (95:5:0.05 v/v/v) • B: Water/Acetonitrile/TFA (5:95:0.05 v/v/v)
Column temperature: 30° C. Auto-sampler temperature: Ambient Needle wash: Methanol/water 80/20 (v/v) Injection volume: • 2 μl of the test and reference solutions, equivalent to about • 0.6 μg of drug substance compound of formula (I) in the reference solution Run time: 18 min […]
The compatibility of the compound of formula (I) with various polymers was tested by preparing melt extrudates according to the manufacturing process as described in example 1 and analyzing the resulting melt extrudates by HPLC to determine the amount of degradation or related products (“impurities”) of the compound of formula (I). […] The amount of total impurities was assessed according to the guideline that the sum of specified and unspecified impurities (herein referred to as total impurity) is preferably not more than (NMT) 0.5%. […]

Series [3] is described as follows: Physical state of compound of formula (I) in melt extrudates by XRPD. How it is done: X-Ray Powder Diffraction (XRPD) Analysis
• Principle: X-ray powder diffraction (XRPD) in reflection geometry • Equipment: Powder diffractomer e.g. type Bruker D8 Discover • Procedure: Place the test substance on the specimen holder. Record the X-ray diffraction pattern between 5° and 40° (2-theta) with Cu Kα radiation (1.5406 Å) in reflection geometry using the following conditions • Detector type: Lynx Eye • High voltage: 40 kV • Current: 40 mA • Scan type: continuous • Step time: 0.3 s • Step size: 0.016° • Soller slit: 2.5° • Slits: 0.6 mm • Method: A part of the sample is used without preparation for the measurement. […] Record the X-ray diffraction pattern between 5° and 40° (2Theta) with CuKα radiation. • Evaluation: Observe the recorded diffractogram and report any detectable diffraction peak. […]
as §1

Broadly, the kinetic solubility is the concentration staying in solution when a stock, usually in DMSO, is diluted into the medium. With `C[C@H]1OC(=O)N(c2cc(-c3cnc(N)nc3C(F)(F)F)nc(N3CCOCC3)n2)[C@H]1CO` [compound of formula (I), (4S,5R)-3-(2′-Amino-2-morpholin-4-yl-4′-trifluoromethyl-[4,5]bipyrimidinyl-6-yl)-4-hydroxymethyl-5-methyl-oxazolidin-2-one], the kinetic solubility in series [1] is ~40 µg/mL. Besides, the “processing temperature leading to degradation of compound of formula (I)” value in series [2] is “exceeding 205 °C”. Also, in series [3], the “Physical state of compound of formula (I) (XRPD)” value was “Crystalline”.

The record behind these values is patent publication US20170209455A1, “Solid Pharmaceutical Composition Comprising PI3K-Inhibitor” (NOVARTIS AG, priority 2014, published 2017).
